Results: ChEMBL document CHEMBL3991601, “The target landscape of clinical kinase drugs” (Science, 2017)
Active and inactive are the calls of the source.

How the values were obtained:
[1] = target: Bone morphogenetic protein receptor type-1A (Homo sapiens, UniProt P36894)
[2] = target: G protein-coupled receptor kinase 6 (Homo sapiens, UniProt P43250)
[3] = target: T1, Dynamin-like GTPase OPA1, mitochondrial (Homo sapiens, UniProt O60313)
T1 sequence (O60313 whole entry): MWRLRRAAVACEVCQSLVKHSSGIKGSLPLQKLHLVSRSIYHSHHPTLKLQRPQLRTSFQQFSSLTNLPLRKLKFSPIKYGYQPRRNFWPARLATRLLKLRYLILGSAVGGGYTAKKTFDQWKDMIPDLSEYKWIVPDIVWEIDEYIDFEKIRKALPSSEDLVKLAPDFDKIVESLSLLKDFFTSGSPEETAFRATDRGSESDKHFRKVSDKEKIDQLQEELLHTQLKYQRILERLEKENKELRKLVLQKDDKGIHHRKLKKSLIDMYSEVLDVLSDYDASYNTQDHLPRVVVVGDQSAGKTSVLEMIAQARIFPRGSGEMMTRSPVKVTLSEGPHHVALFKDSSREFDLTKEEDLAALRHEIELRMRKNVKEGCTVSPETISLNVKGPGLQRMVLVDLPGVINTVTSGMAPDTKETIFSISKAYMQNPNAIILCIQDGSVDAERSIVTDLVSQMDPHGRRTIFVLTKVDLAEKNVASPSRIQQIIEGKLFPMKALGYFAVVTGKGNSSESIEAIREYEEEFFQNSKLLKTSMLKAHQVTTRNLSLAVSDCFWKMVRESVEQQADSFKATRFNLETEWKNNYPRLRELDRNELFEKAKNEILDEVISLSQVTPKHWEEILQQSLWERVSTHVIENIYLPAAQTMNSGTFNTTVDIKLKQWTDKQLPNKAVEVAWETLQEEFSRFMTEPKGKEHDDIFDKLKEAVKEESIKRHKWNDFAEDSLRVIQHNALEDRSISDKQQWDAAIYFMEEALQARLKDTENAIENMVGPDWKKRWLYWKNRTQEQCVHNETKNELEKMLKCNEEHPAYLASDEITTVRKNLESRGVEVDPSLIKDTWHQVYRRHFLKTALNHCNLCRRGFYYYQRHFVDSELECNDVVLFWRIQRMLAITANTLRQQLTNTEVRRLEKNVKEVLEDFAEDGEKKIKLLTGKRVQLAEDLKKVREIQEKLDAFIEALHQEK

[4] = target: cAMP-dependent protein kinase catalytic subunit beta (Homo sapiens, UniProt P22694)
[5] = target: T2, Serine/threonine-protein kinase D2 (Homo sapiens, UniProt Q9BZL6)
T2 sequence (Q9BZL6 whole entry): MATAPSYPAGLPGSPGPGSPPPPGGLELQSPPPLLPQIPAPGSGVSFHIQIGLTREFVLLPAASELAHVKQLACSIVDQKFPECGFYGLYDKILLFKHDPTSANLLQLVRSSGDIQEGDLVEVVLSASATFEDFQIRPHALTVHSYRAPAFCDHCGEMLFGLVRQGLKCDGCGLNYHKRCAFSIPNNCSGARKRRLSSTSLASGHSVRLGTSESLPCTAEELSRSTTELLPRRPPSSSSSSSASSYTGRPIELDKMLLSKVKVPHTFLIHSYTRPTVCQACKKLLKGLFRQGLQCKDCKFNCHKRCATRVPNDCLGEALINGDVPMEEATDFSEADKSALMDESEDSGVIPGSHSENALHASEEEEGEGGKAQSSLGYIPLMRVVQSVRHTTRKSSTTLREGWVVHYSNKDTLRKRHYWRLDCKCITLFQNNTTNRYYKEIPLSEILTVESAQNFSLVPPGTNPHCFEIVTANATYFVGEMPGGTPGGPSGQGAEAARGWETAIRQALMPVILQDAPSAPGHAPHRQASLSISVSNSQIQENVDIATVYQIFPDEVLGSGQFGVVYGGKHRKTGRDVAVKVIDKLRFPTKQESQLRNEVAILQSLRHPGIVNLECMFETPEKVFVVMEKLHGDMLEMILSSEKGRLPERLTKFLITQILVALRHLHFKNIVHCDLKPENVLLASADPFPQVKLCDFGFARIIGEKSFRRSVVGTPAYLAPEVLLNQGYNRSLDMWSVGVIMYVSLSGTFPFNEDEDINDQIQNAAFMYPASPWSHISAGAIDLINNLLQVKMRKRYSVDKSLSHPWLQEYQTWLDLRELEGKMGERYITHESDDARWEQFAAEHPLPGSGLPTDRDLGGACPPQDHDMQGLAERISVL

[6] = target: T3, Serine/threonine-protein kinase 4 (Homo sapiens, UniProt Q13043)
T3 sequence (Q13043 whole entry): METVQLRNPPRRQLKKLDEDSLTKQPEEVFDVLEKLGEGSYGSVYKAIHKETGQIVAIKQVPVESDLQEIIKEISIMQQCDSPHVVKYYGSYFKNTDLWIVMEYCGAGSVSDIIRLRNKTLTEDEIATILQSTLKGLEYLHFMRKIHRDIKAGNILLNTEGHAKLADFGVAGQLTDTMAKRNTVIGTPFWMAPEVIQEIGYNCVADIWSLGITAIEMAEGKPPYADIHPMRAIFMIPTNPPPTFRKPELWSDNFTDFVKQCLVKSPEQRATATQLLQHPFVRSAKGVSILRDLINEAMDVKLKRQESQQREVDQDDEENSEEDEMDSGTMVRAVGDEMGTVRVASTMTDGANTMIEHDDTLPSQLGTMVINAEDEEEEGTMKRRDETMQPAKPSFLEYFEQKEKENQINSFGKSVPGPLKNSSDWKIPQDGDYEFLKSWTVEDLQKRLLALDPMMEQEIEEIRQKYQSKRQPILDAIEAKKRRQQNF

[7] = target: T4, Succinate--CoA ligase [ADP-forming] subunit beta, mitochondrial (Homo sapiens, UniProt Q9P2R7)
T4 sequence (Q9P2R7 whole entry): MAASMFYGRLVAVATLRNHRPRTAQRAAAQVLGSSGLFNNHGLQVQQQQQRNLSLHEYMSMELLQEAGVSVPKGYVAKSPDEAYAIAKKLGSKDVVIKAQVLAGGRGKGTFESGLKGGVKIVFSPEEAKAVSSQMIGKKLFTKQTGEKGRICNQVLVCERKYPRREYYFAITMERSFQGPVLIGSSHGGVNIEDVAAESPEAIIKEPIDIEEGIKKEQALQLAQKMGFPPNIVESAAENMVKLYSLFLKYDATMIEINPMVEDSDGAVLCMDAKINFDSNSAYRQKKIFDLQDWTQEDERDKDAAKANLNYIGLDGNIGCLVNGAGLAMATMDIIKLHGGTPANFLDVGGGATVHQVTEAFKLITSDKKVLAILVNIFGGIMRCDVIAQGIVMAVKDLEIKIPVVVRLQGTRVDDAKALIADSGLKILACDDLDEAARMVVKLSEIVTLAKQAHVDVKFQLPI
Further: in the data inactive means no Kd found up to 30 µM.

G protein-coupled receptor kinase 6, sequence (P43250 whole entry): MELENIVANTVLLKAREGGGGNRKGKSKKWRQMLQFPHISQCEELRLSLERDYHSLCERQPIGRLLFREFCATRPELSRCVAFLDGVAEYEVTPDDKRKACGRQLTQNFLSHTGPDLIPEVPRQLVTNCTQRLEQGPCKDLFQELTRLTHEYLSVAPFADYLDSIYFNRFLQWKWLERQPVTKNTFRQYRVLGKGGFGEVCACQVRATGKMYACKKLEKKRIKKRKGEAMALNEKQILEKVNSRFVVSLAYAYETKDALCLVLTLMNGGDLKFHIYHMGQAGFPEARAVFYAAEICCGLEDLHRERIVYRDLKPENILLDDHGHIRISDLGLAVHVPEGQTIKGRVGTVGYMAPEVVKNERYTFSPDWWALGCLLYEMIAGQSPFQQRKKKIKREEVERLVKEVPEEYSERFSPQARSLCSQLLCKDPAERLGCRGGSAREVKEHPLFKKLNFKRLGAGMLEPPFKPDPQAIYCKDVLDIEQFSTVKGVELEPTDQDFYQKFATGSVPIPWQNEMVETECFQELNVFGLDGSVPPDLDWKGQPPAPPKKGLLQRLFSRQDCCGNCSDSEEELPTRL
Bone morphogenetic protein receptor type-1A, sequence (P36894 whole entry): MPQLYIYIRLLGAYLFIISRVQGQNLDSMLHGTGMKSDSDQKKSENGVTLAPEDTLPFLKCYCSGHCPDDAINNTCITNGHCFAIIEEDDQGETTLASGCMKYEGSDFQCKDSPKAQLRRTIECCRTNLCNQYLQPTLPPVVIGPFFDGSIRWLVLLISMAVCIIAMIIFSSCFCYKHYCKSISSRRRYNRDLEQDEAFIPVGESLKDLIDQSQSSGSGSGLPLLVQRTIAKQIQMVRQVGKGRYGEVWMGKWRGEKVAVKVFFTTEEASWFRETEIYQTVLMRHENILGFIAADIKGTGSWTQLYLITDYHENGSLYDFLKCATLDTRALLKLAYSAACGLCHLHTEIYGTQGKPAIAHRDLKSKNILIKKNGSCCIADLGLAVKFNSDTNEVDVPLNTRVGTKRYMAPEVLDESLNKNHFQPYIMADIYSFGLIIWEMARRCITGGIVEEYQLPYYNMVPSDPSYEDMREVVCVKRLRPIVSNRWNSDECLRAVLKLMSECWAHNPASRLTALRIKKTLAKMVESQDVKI

Row | SMILES | Kd [1] | Kd [2] | Kd [3] | Kd [4] | Kd [5] | Kd [6] | Kd [7]
1 | C[C@@H](Oc1cc(C(=O)Nc2ccc(C(=O)N3CCN(C)CC3)cc2)nnc1N)c1c(Cl)ccc(F)c1Cl | > 30 µM (inactive) | > 30 µM (inactive) | > 30 µM (inactive) | > 30 µM (inactive) | > 30 µM (inactive) | > 30 µM (inactive) | > 30 µM (inactive)
2 | CCNC(=O)C#Cc1ccc2c(c1)NC(=O)/C2=C(\Nc1ccc(CN(C)C)cc1)c1ccccc1 | > 30 µM (inactive) | > 30 µM (inactive) | > 30 µM (inactive) | > 30 µM (inactive) | > 30 µM (inactive) | 1.26 µM (active) | > 30 µM (inactive)
3 | Cc1nc2cc(-c3nn(C(C)C)c4ncnc(N)c34)ccc2o1 | 1.28 µM (active) | > 30 µM (inactive) | > 30 µM (inactive) | > 30 µM (inactive) | > 30 µM (inactive) | > 30 µM (inactive) | > 30 µM (inactive)
4 | COCc1c(-c2ccc(NC(=O)Nc3cc(C(F)(F)F)ccc3F)c(F)c2)c2c(N)ncnn2c1CN1CCOCC1 | > 30 µM (inactive) | > 30 µM (inactive) | > 30 µM (inactive) | > 30 µM (inactive) | > 30 µM (inactive) | > 30 µM (inactive) | > 30 µM (inactive)
5 | Nc1ncnc2c1c(-c1cccc(OCc3ccccc3)c1)cn2[C@H]1C[C@@H](CN2CCC2)C1 [AEW-541] | > 30 µM (inactive) | > 30 µM (inactive) | > 30 µM (inactive) | > 30 µM (inactive) | > 30 µM (inactive) | 3.77 µM (active) | > 30 µM (inactive)
6 | C=CC(=O)Nc1cc2c(Nc3ccc(F)c(Cl)c3)ncnc2cc1C#CC(C)(C)N1CCN(C)CC1 [AV-412 FREE BASE] | > 30 µM (inactive) | > 30 µM (inactive) | > 30 µM (inactive) | > 30 µM (inactive) | > 30 µM (inactive) | > 30 µM (inactive) | > 30 µM (inactive)
7 | CCn1c(C(=O)N(C2CC2)C2CC2)cc2c3c(ncn3C)c(Nc3cc(C)n(C)n3)nc21 [BMS-911543] | > 30 µM (inactive) | > 30 µM (inactive) | > 30 µM (inactive) | > 30 µM (inactive) | > 30 µM (inactive) | > 30 µM (inactive) | > 30 µM (inactive)
8 | COc1cc2ncnc(Oc3cccc(NC(=O)Nc4cc(C(C)(C)C(F)(F)F)on4)c3)c2cc1OC [CEP-32496] | > 30 µM (inactive) | > 30 µM (inactive) | > 30 µM (inactive) | > 30 µM (inactive) | > 30 µM (inactive) | > 30 µM (inactive) | > 30 µM (inactive)
9 | Cc1cc(Nc2ncc(Cl)c(Nc3ccccc3S(=O)(=O)C(C)C)n2)c(OC(C)C)cc1C1CCNCC1 [CERITINIB] | > 30 µM (inactive) | > 30 µM (inactive) | > 30 µM (inactive) | > 30 µM (inactive) | > 30 µM (inactive) | > 30 µM (inactive) | > 30 µM (inactive)
10 | COc1c(OCCCN2CCOCC2)ccc2c1N=C(NC(=O)c1cnc(N)nc1)N1CCN=C21 [COPANLISIB] | > 30 µM (inactive) | > 30 µM (inactive) | > 30 µM (inactive) | > 30 µM (inactive) | > 30 µM (inactive) | > 30 µM (inactive) | > 30 µM (inactive)
11 | COCC(=O)NC/C=C/c1ccc2ncnc(Nc3ccc(Oc4ccc(C)nc4)c(C)c3)c2c1 [CP-724714] | > 30 µM (inactive) | > 30 µM (inactive) | > 30 µM (inactive) | > 30 µM (inactive) | > 30 µM (inactive) | > 30 µM (inactive) | > 30 µM (inactive)
12 | Cc1cccc(-c2nn3c(c2-c2ccnc4ccc(C(N)=O)cc24)CCC3)n1 [GALUNISERTIB] | > 30 µM (inactive) | > 30 µM (inactive) | > 30 µM (inactive) | > 30 µM (inactive) | > 30 µM (inactive) | > 30 µM (inactive) | > 30 µM (inactive)
13 | CNC(=O)c1cccc2cc(Oc3ccnc4cc(OCC5(N)CC5)c(OC)cc34)ccc12 [LUCITANIB] | > 30 µM (inactive) | > 30 µM (inactive) | > 30 µM (inactive) | > 30 µM (inactive) | > 30 µM (inactive) | > 30 µM (inactive) | > 30 µM (inactive)
14 | CNC(=O)c1nn(C)c2c1C(C)(C)Cc1cnc(Nc3ccc(N4CCN(C)CC4)cc3)nc1-2 [MILCICLIB] | > 30 µM (inactive) | > 30 µM (inactive) | > 30 µM (inactive) | > 30 µM (inactive) | 0.143 µM (active) | > 30 µM (inactive) | > 30 µM (inactive)
15 | CNC(=O)c1cc(Oc2ccc(NC(=O)Nc3cc(C(C)(C)C)nn3-c3ccc4ncccc4c3)c(F)c2)ccn1 [REBASTINIB] | > 30 µM (inactive) | > 30 µM (inactive) | > 30 µM (inactive) | > 30 µM (inactive) | > 30 µM (inactive) |  | > 30 µM (inactive)
16 | CN1CCN(CCOc2cc(OC3CCOCC3)c3c(Nc4c(Cl)ccc5c4OCO5)ncnc3c2)CC1 [SARACATINIB] | 0.06 µM (active) | > 30 µM (inactive) | > 30 µM (inactive) | > 30 µM (inactive) | > 30 µM (inactive) | > 30 µM (inactive) | 
17 | CCS(=O)(=O)c1cccc(-c2cc(C(=O)NC3CCN(C)CC3)c(C)c3[nH]c4ncc(C)cc4c23)c1 [TAK-901] | > 30 µM (inactive) | 1.19 µM | > 30 µM (inactive) | > 30 µM (inactive) | > 30 µM (inactive) |  | > 30 µM (inactive)
18 | CC(C)c1cc(CNc2nc(Nc3cc(C4CC4)[nH]n3)cc(N3CCN(C)CC3)n2)on1 [XL-228] |  | > 30 µM (inactive) | > 30 µM (inactive) | > 30 µM (inactive) | 1.37 µM (active) |  | > 30 µM (inactive)
